From patent US7977342B2, “HCV inhibiting bi-cyclic pyrimidines” (Tibotec-Virco Virology BVBA, priority 2007, dated 2011)
pEC50: −log10 of the molar value.

The compounds below were run on HCV replicons (HCV RNA replication) in Huh-7 luc/neo cells (assay: Stable replicon cell reporter assay (Huh-Luc, luciferase)). Details: Hepatitis C virus, 72 h; Huh-Luc (Huh-7 luc/neo) cells, HCV type 1b NS3-NS5B replicon, luciferase readout, three days incubation.
Assay type: cell-based
Text: The compounds of the present invention were examined for activity in the inhibition of HCV RNA replication in a cellular assay. […] The cellular assay was based on a bicistronic expression construct, as described by Lohmann et al. (1999) Science vol. 285 pp. 110-113 with modifications described by Krieger et al. (2001) Journal of Virology 75: 4614-4624, in a multi-target screening strategy. In essence, the method was as follows.
The assay utilized the stably transfected cell line Huh-7 luc/neo (hereafter referred to as Huh-Luc). This cell line harbored an RNA encoding a bicistronic expression construct comprising the wild type NS3-NS5B regions of HCV type 1b translated from an Internal Ribosome Entry Site (IRES) from encephalomyocarditis virus (EMCV), preceded by a reporter portion (FfL-luciferase), and a selectable marker portion (neo^R, neomycine phosphotransferase). The construct was bordered by 5′ and 3′ NTRs (non-translated regions) from HCV type 1b. Continued culture of the replicon cells in the presence of G418 (neo^R) was dependent on the replication of the HCV RNA. The stably transfected replicon cells that expressed HCV RNA, which replicated autonomously and to high levels, encoding inter alia luciferase, were used for screening the antiviral compounds.
The replicon cells were plated in 384 well plates in the presence of the test and control compounds which were added in various concentrations. Following an incubation of three days, HCV replication was measured by assaying luciferase activity (using standard luciferase assay substrates and reagents and a Perkin Elmer ViewLux™ ultraHTS microplate imager). Replicon cells in the control cultures had high luciferase expression in the absence of any inhibitor. The inhibitory activity of the compound on luciferase activity was monitored on the Huh-Luc cells, enabling a dose-response curve for each test compound. EC50 values were then calculated, which value represented the amount of the compound required to decrease by 50% the level of detected luciferase activity, or more specifically, the ability of the genetically linked HCV replicon RNA to replicate.
`CC1CCc2nc(-c3cc(Cl)ccc3F)nc(Nc3ccncc3C(=O)O)c21` (centres unmarked) [Compound 49, 4-[2-(5-Chloro-2-fluorophenyl)-5-methyl-6,7-dihydro-5H-cyclopentapyrimidin-4-ylamino]-nicotinic acid] showed a pEC50 of 4.88.
With `NNC(=O)c1cnccc1Nc1nc(-c2cc(Cl)ccc2F)nc2c1CCC2` [Compound 58] the pEC50 was 4.99.
With `CNC(=O)c1cnccc1Nc1nc(-c2cc(Cl)ccc2F)nc2c1C(C)CC2` (centres unmarked) [Compound 47, 4-[2-(5-Chloro-2-fluorophenyl)-5-methyl-6,7-dihydro-5H-cyclopentapyrimidin-4-ylamino]-N-methyl-nicotinamide] the pEC50 was 4.56.
`Cc1noc2nc(-c3cc(Cl)ccc3F)nc(Nc3ccncc3)c12` [Compound 8] was tested, and the pEC50 was 6.40.
`CNC(=O)c1cnccc1Nc1nc(-c2cc(Cl)ccc2F)nc2c1CCCC2` [Compound 40] gave a pEC50 of 5.14.
Compound `CC1CCc2nc(-c3cc(Cl)ccc3F)nc(Nc3ccncc3C(N)=O)c21` (centres unmarked) [Compound 46] has a pEC50 of 5.80.
`C[C@H](O)CNC(=O)c1cnccc1Nc1nc(-c2cc(Cl)ccc2F)nc2c1CCCC2` [Compound 57] gave a pEC50 of 4.62.
In the case of `CC1(C)Cc2nc(-c3cc(Cl)ccc3F)nc(Nc3ccncc3C(N)=O)c2C1` [Compound 62, 4-[2-(5-Chloro-2-fluoro-phenyl)-6,6-dimethyl-6,7-dihydro-5H-cyclopentapyrimidin-4-ylamino]-nicotinamide], the pEC50 was 6.10.
Work on `NC(=O)c1cnccc1Nc1nc(-c2cc(Cl)ccc2F)nc2c1CCC2` [Compound 21] yielded a pEC50 of 6.40.
Compound `Cc1cnccc1Nc1nc(-c2cc(Cl)ccc2F)nc2c1CCC2` [Compound 20] has a pEC50 of 6.15.
For `CCN(CC)CCNC(=O)c1cnccc1Nc1nc(-c2cc(Cl)ccc2F)nc2c1CCCC2` [Compound 59], the pEC50 was 5.70.
For `Cc1cnccc1Nc1nc(-c2cc(Cl)ccc2F)nn2cccc12` [Compound 80], the pEC50 was 5.24.
`CN(C)CCCNC(=O)c1cnccc1Nc1nc(-c2cc(Cl)ccc2F)nc2c1CCC2` [Compound 69] gave a pEC50 of 5.74.
With `CNC(=O)c1cnccc1Nc1nc(-c2cc(Cl)ccc2F)nc2c1CCC2` [Compound 35] the pEC50 was 5.82.
